Test results reported in patent US8105994B2, “Personal wash cleanser comprising defined alkanoyl compounds, defined fatty acyl isethionate surfactant product and skin or hair benefit agent delivered in flocs upon dilution” (priority 2010, dated 2012).

System: skin, intrascapular area of the back
Test: 14-day cumulative irritation Patch Test, cleansers diluted to 25% w/w in distilled water, occlusive patch
Method: This was randomized, double-blind study. A sufficient number of subjects were recruited to ensure that 25 subjects completed the study. The 14-day cumulative irritation test was conducted as follows. Patching occurred for 14 consecutive days, except on Sundays. Patches applied on Saturday were left in place until Monday, when freshly prepared patches were applied. The designated patch test sites were approximately 2 cm×2 cm on the intrascapular area of the back. Approximately 0.2 mL of the test product was placed onto a Parke-Davis Readi-Bandage® occlusive patch that measured 2 cm×2 cm. Solutions were made by diluting the cleansers to 25% w/w in distilled water. The patch was then applied to the designated test site. The patches were secured with hypoallergenic tape (Scanpor {Allerderm} as needed). A 0.5% sodium dodecyl sulfate (SDS) solution was used as the control in the test.
Each day following application, the patches were removed, the sites evaluated and identical patches reapplied to the same test sites. All evaluations were made using the following 6-point scoring system: • 0=No evidence of any effect • +=Barely perceptible (minimal, faint, uniform or spotty erythema) numerically equivalent to 0.5 • 1=Mild (pink, uniform erythema covering most of the contact site) • 2=Moderate (pink-red, erythema uniform in the entire contact site) • 3=Marked (bright red erythema with/without petechiae or papules) • 4=Severe (deep red erythema with/without vesiculation or weeping)
If a dermal reaction of 3 or 4 occur with any of the test articles at any point during the study, further patch testing on that subject was terminated at the test site involved, and the attained score was assigned to that site for the subsequent scheduled test days.
Cumulative irritation scores, which were the sum of the numerical irritation grades assigned daily during the 14-day test period, were calculated at the end of the study to compare mildness of the test products. […] The data were statistically analyzed using Tukey-Kramer Comparison, and statistical significance was determined at the 95% confidence level.

CCCCCCCCCCCCOS(=O)(=O)[O-].[Na+] [0.5% SDS Solution, sodium dodecyl sulfate]
Total irritation score compared to 0.5% SDS solution (Table 1, first patch test (Olay products)): 100%
Patch test Total irritation score (Table 1, first patch test (Olay products; 0.5% SDS control 783)): 783
Total irritation score compared to 0.5% SDS solution (Table 1, second patch test (Dove Deep Moisture)): 100%
Patch test Total irritation score (Table 1, second patch test (Dove Deep Moisture; 0.5% SDS control 912)): 912
